Data published in paper PMC12002301, “Discovery and functional characterization of a bombesin-type neuropeptide signaling system in an invertebrate” (Proceedings of the National Academy of Sciences of the …, 2025).
“Also recorded” adds a separate entry of the source. Ends that are not written are not given here.

How the values were obtained:
[1] = system: fundic muscle of mice; settings: cited from earlier work
Source text: (§1) The functional characterization of ArBN in A. rubens provides insights into the comparative physiology of BN-type neuropeptide signaling.

[2] = system: BB2 receptor (GRP-R); design: method as in PMID 1707129, PMID 1848080, PMID 1671171, PMID 1655761, PMID 31593737; settings: mammals; cited from earlier work
[3] = system: tube foot preparations; settings: cited from earlier work
Protocol: Based on the expression of ArBNP in the cardiac stomach and tube feet of A. rubens, experiments were performed to investigate effects of ArBN on in vitro preparations of these organs. […] In experiments where cardiac stomach preparations were washed in between application of ArBN at different ...

[4] = system: GPCR activated by BN-type neuropeptide; settings: Branchiostoma japonicum; cited from earlier work
Source text: Insights into the evolutionary history of BN-type neuropeptide signaling have been obtained from phylogenetic analysis of genome sequence data. A gene encoding a BN-type neuropeptide precursor was identified in the invertebrate chordate Branchiostoma floridae [subphylum Cephalochordata; ([4])] and, subsequently, experimental characterization of BN-type neuropeptide signaling in the cephalochordate Branchiostoma japonicum has been reported ([24]). A GPCR that is activated by the BN-type neuropeptide DKGQEHWQYGHWY-NH2 was identified. Furthermore, expression of the gene encoding this neuropeptide ...

[5] = system: BB1 receptor (NMB-R); settings: mammals; cited from earlier work
Source text: BN-type neuropeptides exert their effects by binding to GPCRs. In mammals, NMB and GRP act as high affinity ligands for the BB1 receptor (NMB-R) and the BB2 receptor (GRP-R), respectively, and orthologs of these receptors have been identified in nonmammalian vertebrates ([20]–[24]). […] BN-type neuropeptides are involved in regulation of a variety of physiological and behavioral processes in mammals/vertebrates, including t ...

[6] = system: everted cardiac stomach of A. rubens; assay: In vivo retraction of everted cardiac stomach; design: species or system Asterias rubens; settings: 10 µL of 10^-4 M injected, words
Source text: Therefore, we performed experiments to investigate whether ArBN causes cardiac stomach retraction in A. rubens when injected in vivo. A description of the methods employed for investigation of in vivo effects of ArBN on the everted cardiac stomach of A. rubens is included in SI Appendix, SI Methods. […]
foot preparations. Having determined that ArBN had effects on preparations when tested at a high concentration (10^-6 M), then dose-response data for this peptide were obtained with final concentrations in the organ bath ranging from 10^-10 M to 10^-6 M. Two types of tests were performed when obtaining dose-response data for ArBN:
Test type 1: Here the preparation was washed thoroughly with seawater after adding ArBN to the organ at different concentrations. […]
The contraction effect of NGFFYamide (10^-7 M) or ACh (10^-5 M) was defined as 100% and the effects of ArBN were calculated as a percentage of the effect of NGFFYamide or ACh. […]
Analysis of the in vivo effects of ArBN on the everted cardiac stomach of A. rubens The physiological status of the starfish (~8 cm in diameter) tested was normalized by a 7-day starvation period. […] Then, the starfish was firstly injected with 10 µl of distilled water (negative control) and video recorded using a camera (Canon EOS 700D) for 7 min. Then, the same starfish was injected with NGFFYamide (positive control) or ArBN and video recorded for 7 min. […]

[7] = system: cardiac stomach preparations; settings: cited from earlier work
Protocol: Based on the expression of ArBNP in the cardiac stomach and tube feet of A. rubens, experiments were performed to investigate effects of ArBN on in vitro preparations of these organs. […] In experiments where cardiac stomach preparations were washed in between application of ArBN at different ... || Starfish (A. rubens) feed by everting their cardiac stomach out of the mouth over the digestible soft tissues of prey (e.g., mussels) and when feeding is completed, the stomach is retracted back into the central disk region of the body ([45]). […] Discovery of neuropeptides that exert excitatory or inhibitory effects on the cardiac stomach in vitro is of interest with respect to the unusual feeding behavior of A. rubens and other starfish. When starfish feed on bivalve mollusks such as mussels, they use the collective pulling power of tube feet loca ...

[8] = system: everted cardiac stomach of A. rubens; settings: cited from earlier work
Source text: Starfish (A. rubens) feed by everting their cardiac stomach out of the mouth over the digestible soft tissues of prey (e.g., mussels) and when feeding is completed, the stomach is retracted back into the central disk region of the body ([45]). […] Discovery of neuropeptides that exert excitatory or inhibitory effects on the cardiac stomach in vitro is of interest with respect to the unusual feeding behavior of A. rubens and other starfish. When starfish feed on bivalve mollusks such as mussels, they use the collective pulling power of tube feet loca ...

[9] = system: A. rubens feeding behavior; settings: vs water; cited from earlier work
Protocol: Based on the effects of NGFFYamide, ArSK/CCK1, and ArSK/CCK2 in triggering a process associated with termination of feeding behavior—cardiac stomach retraction—the effects of neuropeptides on feeding behavior of starfish have also been investigated. In these experiments starfish were starved and then presented with prey (a mussel) in a testing tank and the time taken to touch, enclose, and then consume the mussel was measured.

[10] = system: intestinal smooth muscle from caimans; settings: cited from earlier work
Source text: as §1

## GRP: BN-like peptide identified in the porcine gut (APVSVGGGTVLAKMYPRGNHWAVGHLM; ends and bridges not checked; UniProt P63153 24-50, looked up)
[1]
  contraction of fundic muscle: dose-dependent contraction
[2]
  affinity for BB2 receptor (GRP-R): high affinity

## CC(=O)OCC[N+](C)(C)C [ACh, acetylcholine]
[3]
  effect on tube foot preparations in vitro: causes contraction of tube foot preparations in vitro

## DKGQEHWQYGHWY-NH2 [BN-type neuropeptide of the cephalochordate Branchiostoma japonicum]
[4]
  GPCR activation: activated

## NMB: ranatensin-like peptide identified in the porcine spinal cord
[1]
  contraction of fundic muscle: dose-dependent contraction
[5]
  affinity for BB1 receptor (NMB-R): high affinity

## NGFFYamide [positive control]
[6]
  cardiac stomach retraction: caused cardiac stomach retraction
[7]
  effect on cardiac stomach preparations in vitro: causes contraction of cardiac stomach preparations in vitro; also recorded: triggers cardiac stomach contraction in vitro; also recorded: cause cardiac stomach contraction in vitro
[8]
  cardiac stomach retraction in vivo: retraction in vivo; also recorded: trigger retraction of the everted cardiac stomach
[9]
  time taken to enclose a mussel: increase in the time taken for starfish to touch and enclose a mussel
  time taken to touch a mussel: increase in the time taken for starfish to touch

## pQQRLGNQWAVGHLM-NH2 [BN, peptide first isolated from the skin of the frog Bombina bombina]
[10]
  effect on intestinal smooth muscle: excitatory effect
